Assay results as given in patent US8853392B2, “Benzamide mGluR5 positive allosteric modulators and methods of making and using same” (Vanderbilt University, priority 2007, dated 2014).
Where “and” joins values, the source holds several entries; their conditions need not be identical. Equal entries are not always repeated. Entries after “also recorded” stand apart in the source; their conditions may differ. Where two headings read alike, the source gives them in different places. One block for each molecule: values may come before it.

What was measured:
[1] = test system: amphetamine-induced hyperlocomotion; test: reversal of amphetamine-induced hyperlocomotion; format: in vivo, male Sprague-Dawley rats; settings: rats, i.p., FIG. 8-10, 13, 14
Method: For example, compounds of the present invention reverse amphetamine-induced hyperlocomotion in male Sprague-Dawley rats at doses ranging from 1 to 100 mg/kg i.p. Data for three example compounds follow:
Locomotor activity can be assessed as mean distance traveled (cm) in standard 16×16 photocell testing chambers measuring 43.2 cm (L)×43.2 cm (W)×30.5 cm (H) (Med Associates, St. Albans, Vt.). Animals can be habituated to individual activity chambers for at least 60 min prior to drug administration. Following administration of appropriate drugs or vehicle, activity can be recorded for a 3 hr time period. Data can be expressed as the mean (±SEM) distance traveled recorded in 10 min intervals over the test period. The data can be analyzed using repeated measures analysis of variance (ANOVA) followed by post-hoc testing using Tukey's HSD test, when appropriate. A difference can be considered significant when p≦0.05.

[2] = test system: hippocampal long term potentiation (LTP); test: hippocampal long term potentiation (LTP); format: cell-based; settings: after applying a stimulus to the synapse, FIG. 17
Excerpt: (§1) mGluR5 potentiation has also been linked to improvement of cognition (Kinney, G. G.; O'Brien, Lemaire, W.; Burno, M.' Bickel, D. J.; Clements, M. K.; Wisnoski, D. D.; Lindsley, C. W.; Tiller, P. R.; Smith, S.; Jacobson, M. A.; Sur, C.; Duggan, M. E.; Pettibone, D. J.; Williams, Jr., D. W. ‘A novel selective allosteric modulator of metabotropic glutamate receptor subtype 5 (mGluR5) has an antipsychotic profile in rat behavioral models’ J. Pharmacol. Exp. Therapeut. 2005, 313(1), 199; Lindsley, C. W.; Wisnoski, D. D.; Leister, W. H.; O'Brien, J. A.; Lemiare, W.; Williams, Jr., D. L.; Burno, M.; Sur, C.; Kinney, G. G.; Pettibone, D. J.; iller, P. R.; Smith, S.; Duggan, M. E.; Hartman, G. D.; Conn, P. J.; Huff, J. R. ‘Discovery of positive allosteric modulators for the metabotropic glutamate receptor subtype from a series of N-(1,3-Diphenyl-1H-pyrazol-5-yl)benzamides that potentiate receptor function in vivo’ J. Med. Chem. 2004, 47, 5825; Epping-Jordan M. P., Nayak, S., Derouet, F., Dominguez, H., Bessis A. S., Le Poul E., Ludwig B. L. Mutel V., Poli S. M. and Rocher J. P. In Vivo Characterization of mGluR5 Positive Allosteric Modulators as Novel Treatments for Schizophrenia and Cognitive Dysfunction Neuropharmacology 2005, 49, 243.). […]

[3] = test system: prepulse inhibition (PPI); test: reversal of amphetamine-induced prepulse inhibition (PPI) of startle; format: in vivo, rats; settings: FIG. 15, 16; four prepulse intensities above background
Excerpt: Schizophrenic patients show decreased measures of sensorimotor gating, such as prepulse inhibition (PPI) of startle, and preclinical models of PPI in rats are routinely used to predict antipsychotic efficacy. In fact, PPI can be measured in humans and rats employing identical stimulus parameters yielding similar responses (Braff, D. L.; Geyer, M. A.; Swerdlow, N. R. ‘Human studies of prepulse inhibition of startle: normal subjects, patient groups, and pharmacological studies.’ Psychopharmacology 2001, 156(2-3), 234-258; Braff, D. L.; Geyer, M. A. ‘Sensorimotor gating and schizophrenia. Human and animal model studies.’ Archives of general psychiatry 1990, 47(2), 181-8; Braff, D. L.; Geyer, M. A.; Swerdlow, N. R. ‘Human studies of prepulse inhibition of startle: normal subjects, patient groups, and pharmacological studies.’ Psychopharmacology 2001, 156(2-3), 234-258; Weiss, I. C.; Feldon, J. ‘Environmental animal models for sensor motor gating deficiencies in schizophrenia: a review.’ Psychopharmacology 2001, 156(2-3), 305-326; Thomsen, M.; Woertwein, G.; Fink-Jensen, A.; Woldbye, D. P. D.; Wess, J.; Caine, S. B. ‘Decreased prepulse inhibition and increased sensitivity to muscarinic, but not dopaminergic drugs in M5 muscarinic acetylcholine receptor knockout mice.’ Psychopharmacology 2007, 192(1), 97-110.). […]

[4] = test system: Novel Object Recognition (NOR); test: Novel Object Recognition (NOR); format: in vivo; settings: FIG. 11
Excerpt: as §1

[5] = target: T1, rat mGluR5 (Rattus norvegicus, UniProt P31424); test: potentiation of mGluR5 response to glutamate, Ca2+ fluorescence (FDSS) in HEK cells transfected with rat mGluR5; format: cell-based
T1 construct: expressed in transfected cells; host or cells: human embryonic kidney (HEK) cells
In short: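 HEK cells expressing rat mGluR5, loaded with 2 μM fluo-4 AM; buffer HBSS, 20 mM HEPES, 2.5 mM probenecid, pH 7.4, 0.1% DMSO final. Compound added 5 min before glutamate, typically at EC20, with Ca2+ fluorescence read over 1 min and normalized to maximal agonist response. Potentiator EC50 from curve fitting; agonist curve shifts measured at fixed compound concentrations.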

[6] = Table 1, EC50 for potentiating the mGluR5 receptor; unit inferred; read-out: EC50
[7] = in vitro potency; read-out: In vitro

T1 sequence (P31424 21-1203): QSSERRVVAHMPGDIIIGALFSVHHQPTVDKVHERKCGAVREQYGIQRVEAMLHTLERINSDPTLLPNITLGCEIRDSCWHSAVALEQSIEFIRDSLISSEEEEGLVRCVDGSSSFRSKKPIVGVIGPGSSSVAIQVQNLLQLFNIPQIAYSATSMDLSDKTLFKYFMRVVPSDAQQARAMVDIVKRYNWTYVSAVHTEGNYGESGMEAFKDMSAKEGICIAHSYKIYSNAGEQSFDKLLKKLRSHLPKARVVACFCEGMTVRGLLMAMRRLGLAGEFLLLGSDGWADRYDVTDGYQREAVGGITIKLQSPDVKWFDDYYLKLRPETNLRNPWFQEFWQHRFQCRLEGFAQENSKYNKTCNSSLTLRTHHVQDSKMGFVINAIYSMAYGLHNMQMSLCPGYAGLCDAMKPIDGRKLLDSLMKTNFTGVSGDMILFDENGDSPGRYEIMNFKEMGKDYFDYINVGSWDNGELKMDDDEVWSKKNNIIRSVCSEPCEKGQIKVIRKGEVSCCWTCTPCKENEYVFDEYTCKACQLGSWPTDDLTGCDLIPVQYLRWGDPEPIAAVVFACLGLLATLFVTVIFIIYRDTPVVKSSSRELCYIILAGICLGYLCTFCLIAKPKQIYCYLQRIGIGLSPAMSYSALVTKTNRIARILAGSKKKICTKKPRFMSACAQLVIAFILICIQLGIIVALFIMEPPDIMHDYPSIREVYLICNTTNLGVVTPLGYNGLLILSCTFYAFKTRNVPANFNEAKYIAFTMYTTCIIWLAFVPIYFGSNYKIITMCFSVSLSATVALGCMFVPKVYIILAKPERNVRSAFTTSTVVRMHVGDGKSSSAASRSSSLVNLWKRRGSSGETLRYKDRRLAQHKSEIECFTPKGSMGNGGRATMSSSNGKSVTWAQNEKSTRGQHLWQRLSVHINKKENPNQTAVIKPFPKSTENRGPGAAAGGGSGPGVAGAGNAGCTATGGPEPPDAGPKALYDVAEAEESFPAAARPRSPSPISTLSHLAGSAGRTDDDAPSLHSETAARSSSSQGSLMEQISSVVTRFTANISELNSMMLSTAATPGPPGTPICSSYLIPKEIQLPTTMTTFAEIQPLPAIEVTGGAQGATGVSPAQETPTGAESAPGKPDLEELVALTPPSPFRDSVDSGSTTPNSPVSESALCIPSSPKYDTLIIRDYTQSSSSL

Molecule: O=C(c1ccc(F)cc1)N1CCC[C@H](c2nc(-c3ccc(F)cc3)no2)C1 [ADX47273]
reversal of amphetamine-induced hyperlocomotion [1]: afforded similar results; also recorded: reversal of amphetamine-induced hyperlocomotion
increase in strength of synaptic connections (hippocampal LTP) [2]: induced a robust increase in synaptic connections
reversal of amphetamine-induced prepulse inhibition (PPI) [3]: affords similar results; also recorded: reversal of amphetamine-induced prepulse inhibition (PPI)
improvement in Novel Object Recognition (NOR) [4]: robust and significant improvement in NOR; also recorded: cognitive improvement

Emax ([5]; HEK293; read-out: % Glu Max): 50%
EC50 [5, 6]: 14.3 nM
EC50 [5, 7]: 13.6 nM
Molecule: O=C(c1ccc(C#Cc2ccccc2)cc1)N1CCC(O)CC1 [Compound VU13, (4-hydroxypiperidin-1-yl)(4-(phenylethynyl)phenyl)methanone]
reversal of amphetamine-induced hyperlocomotion [1]: efficacy in reversing amphetamine-induced hyperlocomotion; also recorded: in vivo efficacy

Emax ([5]; HEK293; read-out: % Glu Max): 41%
EC50 [5, 6]: 32.7 nM and 43.4 nM
EC50 [5, 7]: 29.6 nM
Molecule: O=C(c1ccc(C#Cc2ccccc2)cc1)N1CCC(CO)CC1 [Compound VU14/C104B2, (4-(hydroxymethyl)piperidin-1-yl)(4-(phenylethynyl)phenyl)methanone]
reversal of amphetamine-induced hyperlocomotion [1]: efficacy in reversing amphetamine-induced hyperlocomotion; also recorded: in vivo efficacy

Molecule: CCCC1(O)CCN(C(=O)c2ccc(C#Cc3ccccc3)cc2)CC1 [Compound VU60/C109B2, (4-hydroxy-4-propylpiperidin-1-yl)(4-(phenylethynyl)phenyl)methanone]
reversal of amphetamine-induced hyperlocomotion [1]: efficacy in reversing amphetamine-induced hyperlocomotion
reversal of amphetamine-induced hyperlocomotion ([1]; listed as VU60): in vivo efficacy
Emax ([5]; HEK293, read-out: % Glu Max): 90%
Emax ([5]; HEK293, read-out: % Glu Max, maximum extent of potentiation, normalized to maximal response to glutamate; SAR tables): 90.1%
EC50 [5, 6]: 1610 nM
EC50 [5, 7]: 1250 nM

EC50 [5, 6]: 177 nM
Molecule: O=C(NCCc1ccc(Cl)cc1)c1ccc(C#Cc2ccccc2)cc1 [N-(4-chlorophenethyl)-4-(phenylethynyl)benzamide]

EC50 [5, 6]: 3330 nM
Molecule: CC1CCCCN1C(=O)c1ccc(C(=O)Nc2ccc(F)cc2)cc1 (stereo not drawn) [N-(4-fluorophenyl)-4-(2-methylpiperidine-1-carbonyl)benzamide]

EC50 [5, 6]: 76.3 nM
Molecule: CC1CCC(NC(=O)c2ccc(C#Cc3ccccc3)cc2)CC1 (stereo not drawn) [N-(4-methylcyclohexyl)-4-(phenylethynyl)benzamide]

EC50 [5, 6]: 68.7 nM
Molecule: O=C(NCC1CCCCC1)c1ccc(C#Cc2ccccc2)cc1 [N-(cyclohexylmethyl)-4-(phenylethynyl)benzamide]

EC50 [5, 6]: 33.5 nM
Molecule: CCCCNC(=O)c1ccc(C#Cc2ccccc2)cc1 [N-butyl-4-(phenylethynyl)benzamide]

EC50 [5, 6]: 2.78 nM
Molecule: O=C(NC1CCCC1)c1ccc(C#Cc2ccccc2)cc1 [N-cyclopentyl-4-(phenylethynyl)benzamide]

EC50 [5, 6]: 27.3 nM
Molecule: CC(C)CCNC(=O)c1ccc(C#Cc2ccccc2)cc1 [N-isopentyl-4-(phenylethynyl)benzamide]

Molecule: O=C(Nc1cc(-c2ccccc2)nn1-c1ccccc1)c1ccc([N+](=O)[O-])cc1 [VU29]
increase in strength of synaptic connections (hippocampal LTP) [2]: induced a robust increase in synaptic connections

Molecule: O=C(c1ccc(C#Cc2ccccc2)cc1)N1CCC(O)(c2ccc(F)cc2)CC1 [drawing 155, (4-(4-fluorophenyl)-4-hydroxypiperidin-1-yl)(4-(phenylethynyl)phenyl)methanone]
EC50 [5, 6]: 1250 nM

Molecule: O=C(c1ccc(C#Cc2ccccc2)cc1)N1CCC(O)(c2cccc(F)c2)CC1 [drawing 160, (4-(3-fluorophenyl)-4-hydroxypiperidin-1-yl)(4-(phenylethynyl)phenyl)methanone]
EC50 [5, 6]: 1770 nM

Molecule: COc1ccc(C2(O)CCN(C(=O)c3ccc(C#Cc4ccccc4)cc3)CC2)cc1 [drawing 173, (4-hydroxy-4-(4-methoxyphenyl)piperidin-1-yl)(4-(phenylethynyl)phenyl)methanone]
EC50 [5, 6]: 2630 nM

EC50 [5, 6]: 5.28 nM
Molecule: O=C(c1ccc(C#Cc2ccccc2)cc1)N1CCOCC1 [morpholino(4-(phenylethynyl)phenyl)methanone]

Molecule: (4-hydroxypiperidin-1-yl)(4-(phenylethynyl)phenyl)methanone [Compound VU13]
reversal of amphetamine-induced hyperlocomotion ([1]; listed as VU000013): affords similar results
reversal of amphetamine-induced hyperlocomotion ([1]; listed as VU00013): reversal of amphetamine-induced hyperlocomotion
EC50 [5, 6]: 28.3 nM
